How the values were obtained:
Assay type in all cases: in vivo
[1] = test system: barnyardgrass (Echinochloa crus-galli); assay: Test A postemergence; conditions: Echinochloa crus-galli, post-emergence, 240 h, Postemergence
Method in brief: (§1)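 Greenhouse, ~10 d after spray; visual injury vs untreated controls, 0 = no effect, 100 = complete control. Preemergence: directed soil spray over planted seeds. Postemergence: plants 2–10 cm, 1–2 leaf stage. Loam/sand blend. Compound in non-phytotoxic solvent with surfactant.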

corn (Zea mays) = assay: Test A postemergence; conditions: Zea mays, post-emergence, 240 h, Postemergence, read-out: Corn plant response rating (0 to 100 scale)
Method in brief: as §1

[2] = test system: blackgrass (Alopecurus myosuroides); assay: Test A postemergence; conditions: Alopecurus myosuroides, post-emergence, 240 h, Postemergence, read-out: Blackgrass plant response rating (0 to 100 scale)
Method in brief: as §1

[3] = test system: ryegrass, Italian (Italian ryegrass, Lolium multiflorum); assay: Test A postemergence; conditions: Lolium multiflorum, post-emergence, 240 h, Postemergence, read-out: Ryegrass, Italian plant response rating (0 to 100 scale)
Method in brief: as §1

[4] = test system: pigweed (Amaranthus retroflexus); assay: Test A postemergence; conditions: Amaranthus retroflexus, post-emergence, 240 h, Postemergence, read-out: Pigweed plant response rating (0 to 100 scale)
Method in brief: as §1

[5] = test system: giant foxtail (Setaria faberii); assay: Test A postemergence; conditions: Setaria faberi, post-emergence, 240 h, Postemergence, read-out: Foxtail, Giant plant response rating (0 to 100 scale)
Method in brief: as §1

[6] = test system: ragweed (common ragweed, Ambrosia elatior); assay: Test A postemergence; conditions: Ambrosia artemisiifolia, post-emergence, 240 h, Postemergence, read-out: Ragweed plant response rating (0 to 100 scale)
Method in brief: as §1

Kochia (Kochia scoparia) [7] = assay: Test A postemergence; conditions: Bassia scoparia, post-emergence, 240 h, Postemergence, read-out: Kochia plant response rating (0 to 100 scale)
Method in brief: as §1

[8] = test system: Galium (catchweed bedstraw, Galium aparine); assay: Test A postemergence; conditions: Galium, post-emergence, 240 h, Postemergence, read-out: Galium plant response rating (0 to 100 scale)
Method in brief: as §1

[9] = test system: wheat (Triticum aestivum); assay: Test A postemergence; conditions: Triticum aestivum, post-emergence, 240 h, Postemergence, read-out: Wheat plant response rating (0 to 100 scale)
Method in brief: as §1

[10] = test system: ducksalad (Heteranthera limosa); assay: Test B flooded paddy test; conditions: Heteranthera limosa, 250 g ai/ha, Flood; 0 to 100 scale where 0 is no effect and 100 is complete control; read-out: Ducksalad plant response rating
Method in brief: (§2)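 Flooding to 3 cm over soil accompanied treatment, which consisted of adding compound to the standing water around 2-leaf plants; depth was then maintained. Visual assessment versus controls followed at 13 to 15 d (scale 0–100, 0 meaning no effect).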

[11] = test system: barnyardgrass (Echinochloa crus-galli); assay: Test B flooded paddy test; conditions: Echinochloa crus-galli, 250 g ai/ha, Flood; 0 to 100 scale where 0 is no effect and 100 is complete control; read-out: Barnyardgrass plant response rating
Method in brief: as §2

rice (Oryra sativa) = assay: Test B flooded paddy test; conditions: Oryza sativa, 250 g ai/ha, Flood; 0 to 100 scale where 0 is no effect and 100 is complete control; read-out: Rice plant response rating
Method in brief: as §2

[12] = test system: sedge, umbrella (small-flower umbrella sedge, Cyperus difformis); assay: Test B flooded paddy test; conditions: Cyperus difformis, 250 g ai/ha, Flood; 0 to 100 scale where 0 is no effect and 100 is complete control; read-out: Sedge, Umbrella plant response rating
Method in brief: as §2

[13] = test system: barnyardgrass (Echinochloa crus-galli); assay: Test A preemergence; conditions: Echinochloa crus-galli, pre-emergence, 240 h, 0 to 100 scale where 0 is no effect and 100 is complete control, read-out: Barnyardgrass plant response rating
Method in brief: as §1

[14] = test system: ryegrass, Italian (Italian ryegrass, Lolium multiflorum); assay: Test A preemergence; conditions: Lolium multiflorum, pre-emergence, 240 h, 0 to 100 scale where 0 is no effect and 100 is complete control, read-out: Ryegrass, Italian plant response rating
Method in brief: as §1

[15] = test system: pigweed (Amaranthus retroflexus); assay: Test A preemergence; conditions: Amaranthus retroflexus, pre-emergence, 240 h, 0 to 100 scale where 0 is no effect and 100 is complete control, read-out: Pigweed plant response rating
[16] = test system: giant foxtail (Setaria faberii); assay: Test A preemergence; conditions: Setaria faberi, pre-emergence, 240 h, 0 to 100 scale where 0 is no effect and 100 is complete control, read-out: Foxtail, Giant plant response rating
Method in brief: as §1

[17] = test system: ragweed (common ragweed, Ambrosia elatior); assay: Test A preemergence; conditions: Ambrosia artemisiifolia, pre-emergence, 240 h, 0 to 100 scale where 0 is no effect and 100 is complete control, read-out: Ragweed plant response rating
Method in brief: as §1

Kochia (Kochia scoparia) [18] = assay: Test A preemergence; conditions: Bassia scoparia, pre-emergence, 240 h, 0 to 100 scale where 0 is no effect and 100 is complete control, read-out: Kochia plant response rating
Method in brief: as §1

[19] = 125 g ai/ha, visual rating about 10 d after treatment
[20] = 31 g ai/ha, 0 is no effect, 100 is complete control
[21] = 125 g ai/ha, preemergence, visual injury rating, approximately 10 d

SMILES: Cc1ccc([C@H]2CN(C)C(=O)[C@@H]2C(=O)Nc2ccccc2)cc1 [Compound 1291]
- pest or weed control at 125 g/ha ([1]; 125 g ai/ha, visual rating about 10 d after treatment, read-out: Barnyardgrass plant response rating (0 to 100 scale, 0 no effect, 100 complete control)): 90%
- pest or weed control at 31 g/ha ([1]; 31 g ai/ha, 0 is no effect, 100 is complete control, read-out: Barnyardgrass plant response rating (0 to 100 scale)): 70%
- plant injury at 125 g/ha (corn (Zea mays); [19]): 30%
- plant injury at 31 g/ha (corn (Zea mays); [20]): 0%
- pest or weed control at 125 g/ha [2, 19]: 0%
- pest or weed control at 31 g/ha [2, 20]: 0%
- pest or weed control at 125 g/ha [3, 19]: 0%
- pest or weed control at 31 g/ha [3, 20]: 0%
- pest or weed control at 125 g/ha [4, 19]: 0%
- pest or weed control at 31 g/ha [4, 20]: 0%
- pest or weed control at 125 g/ha [5, 19]: 80%
- pest or weed control at 31 g/ha [5, 20]: 70%
- pest or weed control at 125 g/ha [6, 19]: 0%
- pest or weed control at 31 g/ha [6, 20]: 0%
- pest or weed control at 125 g/ha (Kochia (Kochia scoparia) [7]; [19]): 0%
- pest or weed control at 31 g/ha (Kochia (Kochia scoparia) [7]; [20]): 0%
- pest or weed control at 125 g/ha [8, 19]: 20%
- pest or weed control at 31 g/ha [8, 20]: 0%
- plant injury at 125 g/ha [9, 19]: 30%
- plant injury at 31 g/ha [9, 20]: 0%
- pest or weed control at 250 g/ha [10]: 100%
- pest or weed control at 250 g/ha [11]: 90%
- pest or weed control at 250 g/ha (rice (Oryra sativa)): 30%
- pest or weed control at 250 g/ha [12]: 0%
- pest or weed control at 31 g/ha ([13]; 31 g ai/ha, Preemergence): 100%
- pest or weed control at 125 g/ha [13, 21]: 100%
- pest or weed control at 31 g/ha ([14]; 31 g ai/ha, Preemergence): 0%
- pest or weed control at 125 g/ha [14, 21]: 20%
- pest or weed control at 31 g/ha ([15]; 31 g ai/ha, Preemergence): 0%
- pest or weed control at 125 g/ha [15, 21]: 100%
- pest or weed control at 31 g/ha ([16]; 31 g ai/ha, Preemergence): 100%
- pest or weed control at 125 g/ha [16, 21]: 100%
- pest or weed control at 31 g/ha ([17]; 31 g ai/ha, Preemergence): 0%
- pest or weed control at 125 g/ha [17, 21]: 0%
- pest or weed control at 31 g/ha (Kochia (Kochia scoparia) [18]; 31 g ai/ha, Preemergence): 0%
- pest or weed control at 125 g/ha (Kochia (Kochia scoparia) [18]; [21]): 40%
